Results on 6 compounds are retold here after patent US6545050B1, “Aryl sulphonamide amino acid esters and analogues” (Bayer Aktiengesellschaft, priority 1998, dated 2003).

Where a name gives a salt, the structure may show the parent alone.

One data set deals with T1, rat CB1 receptor (Rattus norvegicus, UniProt P20272).
T1 construct: contains an open reading frame of 1419 base pairs which corresponds to a protein of 473 amino acids; expressed in transfected cells; host or cells: CHOluc9 reporter cells stably transfected with plasmid CMV-RH (rat CB1 cDNA in pRc/CMV)
T1 sequence (P20272 whole entry): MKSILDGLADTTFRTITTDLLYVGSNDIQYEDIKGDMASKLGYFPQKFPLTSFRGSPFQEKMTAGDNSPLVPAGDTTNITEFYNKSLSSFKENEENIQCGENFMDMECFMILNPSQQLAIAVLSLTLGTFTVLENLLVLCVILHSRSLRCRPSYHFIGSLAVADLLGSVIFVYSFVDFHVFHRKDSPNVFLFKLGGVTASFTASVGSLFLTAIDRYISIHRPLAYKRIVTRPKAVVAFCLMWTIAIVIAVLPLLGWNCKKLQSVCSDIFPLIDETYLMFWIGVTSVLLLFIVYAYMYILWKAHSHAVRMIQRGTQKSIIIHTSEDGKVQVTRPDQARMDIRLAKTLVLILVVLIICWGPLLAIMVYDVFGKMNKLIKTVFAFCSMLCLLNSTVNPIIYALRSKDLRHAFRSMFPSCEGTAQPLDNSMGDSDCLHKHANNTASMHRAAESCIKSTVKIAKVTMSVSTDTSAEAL
In words: CB1 luciferase reporter gene test (CHOluc9 cells stably transfected with rat CB1). The format is cell-based. The conditions noted are these: forskolin stimulated. Here is the method:
CB1—Luciferase Reporter Gene Test
1. Cloning of the Rat Cannabinoid Receptor CB1
Total RNA from rat brain (the tissue was taken from freshly killed animals and shock-frozen in liquid nitrogen) was isolated by acidic guanidinium thiocyanate/phenol/chloroform extraction (J. Biol. Chem. 1979, 18, 5294) and converted into cDNA by means of reverse transcriptase and random primers (in each case from Invitrogen). The polymerase chain reaction (PCR, conditions: 4 min 94° C., 1H; 1 min 94° C.; 2 min 53° C.; 1 min 72° C., 50 cycles; 1 min 94° C., 2 min 53° C., 4 min 72° C., 1H) was carried out in a Perkin Elmer thermocycler using the enzyme Taq polymerase (Perkin Elmer); the oligonucleotide primers employed (bases 99 to 122: 5′63′, “down”; 1556-1575: 3′75′, “up”) were derived from the published sequence of the rat cannabinoid receptor (Nature 1990, 346, 561) and were synthesized on a DNA synthesizer, model 1380 from Applied Biosystems. One part of the PCR reaction was separated in a 1% strength agarose gel in 1H TBE buffer and then stained with ethidium bromide, only one band having the expected length being visible (approximately 1.5 kb). This PCR product was subcloned into the TA cloning vector (Invitrogen) and the nucleotide sequence of the insert was determined by the dideoxynucleotide chain termination reaction using T7DNA polymerase (Sequenase, USA/Amersham). The insert has a length of 1477 base pairs and contains an open reading frame of 1419 base pairs which corresponds to a protein of 473 amino acids. The number of base pairs, the position of the open reading frame and the number of amino acids agree with the published sequence. Computer analyses were carried out with the aid of the GCG software suite (Genetic Computer Group). The cDNA insert was subcloned into the expression vector pRc/CMV (Invitrogen) after partial digestion with HindIII and NotI (Biolabs). This construct (plasmid CMV-RH) was employed for transfection experiments.
2. Stable Transfection of the CHOluc9 Reporter Cells
CHOluc9 cells were cultured in 50% Dulbecco's modified Eagle medium/50% F-12 (DMEM/F12) which contained 10% foetal calf serum (FCS). Transfections were prepared in 6-well plates. 7.5 μg of Qiagen-purified CMV-RH plasmid DNA were added per […] with the DOTAP transfection system, corresponding to the experimental protocol of the manufacturer (Boehringer Mannheim). Transfected cells were selected using 1 mg/ml G418 and individual clones were obtained by limiting dilution in 96-well plates. Cell lines which express the cannabinoid receptor were identified for the inhibition of reporter gene expression after incubation with the cannabinoid receptor agonist, WIN-55,212-2, in the presence of forskolin. Several stably transfected and subcloned cell lines were further characterized by means of RT-PCR, as described under 1.
3. Test Optimization and Pharmacological Characterization of the CHOCB1 Reporter Cell Line
With the aim of high sensitivity and reproducibility, low variance and high suitability for carrying out on the robotic system, the luciferase test was optimized by variation of several test parameters, such as, for example, cell density, duration of the growth phase and the test incubation, forskolin concentration, medium composition. The following test protocol was used for pharmacological characterization of the cells and for robot-assisted substance screening: the stock cultures were cultured in 50% Dulbecco's modified Eagle medium/50% F-12 (DMEM/F12) with 10% FCS at 37° C. under 10% CO2 and in each case split 1:10 after 2 to 3 days. Test cultures were inoculated into 96-well plates at 5000 cells per well and cultured at 37° C. for 70 hours. The cultures were then carefully washed with phosphate-buffered saline and reconstituted using serum-free ultra-CHO medium (Bio-Whittaker). The substances dissolved in DMSO were diluted 1H in medium and pipetted into the test cultures (maximum DMSO final concentration in the test batch: 0.5%). […]
On the technique in general: Reporter assays use an easily measured gene product as a stand-in for the process of interest.

Data set [1] is described as follows: Solubility determination by precipitation method in physiological saline. Type of data set: physicochemical. The settings on record: saline or isotonic, kinetic from dmso stock, 25° C., shaken 1 hour, HPLC. Here is the method: To determine the solubility, a precipitation method was used:
10 mg of the test substance are completely dissolved in 50 μl of DMSO (stock solution). From this solution, 20 μl are added to 2000 μl of physiological saline. This solution in turn is shaken at 25° C. in a Thermomixer Comfort (from Eppendorf) at 1400 rpm for 1 hour, for equilibration.
The precipitated fractions of the test substance are centrifuged off at 14,000 rpm for 5 min, using a Biofuge 15 from Heraeus. 1300 μl of the supernatant are again centrifuged using a Microfuge from Beckmann, at 45,000 rpm=125,000 g.
10 μl of this centrifugation supernatant are then diluted with 1000 μl of DMSO, and this solution is measured by HPLC. (Hewlett Packard 1090, method: gradient of 100% PBS buffer pH=4 over 15 min to 10% buffer/90% acetonitrile, column: RP18)
The measured peak area of the HPLC determination is converted into the substance concentration using a calibration curve. For the calibration curve, 20 μl of the stock solution are successively diluted with DMSO in such a manner that 5 concentrations of from 2.5 mg/l to 2000 mg/l are obtained. These solutions are likewise measured by HPLC (method see above) and the peak areas are plotted against the concentrations.

In a further data set the test system is rats. Briefly: Rat hypothermia - agonism testing. The conditions noted are these: i.v. administration. The format is in vivo. Here is the method:
Five minutes after determination of the basal body temperature via an oesophageal temperature probe, the test substance is administered (i.v.). A control group receives only the solvent of the test substances, likewise i.v. The body temperature is measured 7.5, 15, 30 and 60 minutes after i.v. administration. The group size per dose is 5-7 animals (rats).

As usually defined, the IC50 is the concentration needed to halve the response being measured. A lower IC50 goes with greater potency in that assay. The compound `NCCCCCCC(=O)OC[C@@H]1Cc2cccc(Oc3cccc(OS(=O)(=O)CCCC(F)(F)F)c3)c2C1` [Example 6, (R)-3-[2-(7-Aminoheptanoyloxymethyl)-indanyl-4-oxy)-phenyl 4,4,4-trifluoro-1-butanesulphonate hydrochloride] came in with an IC50 against rat CB1 receptor of 0.85 nM.

With `CC(C)[C@H](N)C(=O)OC[C@@H]1Cc2cccc(Oc3cccc(OS(=O)(=O)CCCC(F)(F)F)c3)c2C1` [Example 8, (R)-3-[2-((S)-Valinyloxymethyl)-indanyl-4-oxy]-phenyl 4,4,4-trifluoro-1-butanesulphonate hydrochloride], the IC50 against rat CB1 receptor was determined as 0.2 nM.

`CC(C)(C)OC(=O)NCCCCCCC(=O)OC[C@@H]1Cc2cccc(Oc3cccc(OS(=O)(=O)CCCC(F)(F)F)c3)c2C1` [Example 2, (R)-3-[2-(7-N-tert-Butyloxycarbonylaninoheptanoyloxymethyl)-indanyl-4-oxy]-phenyl 4,4,4-trifluoro-1-butanesulphonate] displayed an IC50 at rat CB1 receptor of 0.13 nM.

The compound `NCCC(=O)OC[C@@H]1Cc2cccc(Oc3cccc(OS(=O)(=O)CCCC(F)(F)F)c3)c2C1` [Example 7, (R)-3-[2-(3-Aminopropanoyloxymethyl)-indanyl-4-oxy)-phenyl 4,4,4-trifluoro-1-butanesulphonate hydrochloride] gave an IC50 at rat CB1 receptor of 0.4 nM.

Usually solubility stands for the concentration that dissolves in the medium under given conditions. Read a low solubility as little dissolved substance. `NCC(=O)OC[C@@H]1Cc2cccc(Oc3cccc(OS(=O)(=O)CCCC(F)(F)F)c3)c2C1` [Example 5, (R)-3-(2-Glycinyl-oxymethyl)-indanyl-4-oxy)-phenyl 4,4,4-trifluoro-1-butanesulphonate hydrochloride] came in with a solubility at 1 h in data set [1] of 720 µg/mL. The compound further gave an IC50 against rat CB1 receptor of 0.11 nM. Moreover, the “ED−1° C. (effective dose for 1° C. body temperature reduction)” value in the data set with rats came to 0.03 mg/kg.

Consider `CC(C)(C)OC(=O)NCC(=O)OC[C@@H]1Cc2cccc(Oc3cccc(OS(=O)(=O)CCCC(F)(F)F)c3)c2C1` [Example 1, (R)-3-[2-(N-tert-butyloxycarbonylglycinyl)-oxymethyl-indanyl-4-oxy]-phenyl 4,4,4-trifluoro-1-butanesulphonate], for which, at rat CB1 receptor, the IC50 amounted to 0.35 nM.
